Measurements published in patent publication US8436006B2, “2-amino-quinazoline derivatives useful as inhibitors of β-secretase (BACE)” (Jansssen Pharmaceutica N.V., priority 2004, dated 2013).

Columns and labels:
Type in all cases: biochemical
β-secretase (BACE) [1] = biological target: T1, β-secretase (BACE) (Homo sapiens, UniProt P56817); assay: BACE Assay-2 (Example 159), FS1 substrate, kinetic fluorescence; settings: procedure of Example 159
T1 construct: purchased Panvera
Procedure: (§1) The FS1-substrate stock solution was prepared in DMSO as a 10 mg/mL solution. The FS1-substrate working solution was prepared by diluting the 10 mg/mL stock solution with substrate assay buffer to a final concentration of 300 μg/mL. The β-secretase (BACE) working solution was prepared by diluting a 0.83 mg/mL BACE stock solution with enzyme assay buffer to a final concentration of 4 μg/mL.
Test compounds were dissolved in DMSO at 10 mM.
(§2) The procedure for this assay was as follows: 15 μL of BACE working solution was pipetted into each well of a 96-well plate. To each well was then pipetted 2 μL of test compound at the selected concentration. Test compound and BACE were then mixed with a pipettor and incubated for 20 min at room temperature. To each well was then added 10 μL of the FS1 substrate working solution.
(§3) The procedure for the positive control was as follows: 15 μL of BACE working solution was pipetted into each well to be used as a positive control. To each well was then pipetted 2 μL of vehicle. Vehicle and BACE were then mixed with a pipettor and incubated for 20 min at room temperature. To each well was then added 10 μL of the FS1 substrate working solution.
For test compounds, measured at multiple concentrations, the measured T0 and T60 values were used to calculate an IC50 value using Graphpad Software (or PIR). For test compounds, Ki inhibition was determined as follows: For each compound concentration and positive control, rate of cleavage of substrate (Vi, where i=compound concentration in μM) was determined as Δ Fluorescence/Δ time (min). Cleavage rates (Vi) were plotted as a function of inhibitor concentration in μM [I]. The Ki was then determined by fitting the following equation to the graph of [I] vs Vi Y=aVmax/(50+24*(1+X/Ki)),

β-secretase (BACE) [2] = biological target: T1, β-secretase (BACE); assay: BACE FS1% Inhibition Assay (Example 160); settings: for inhibition at 0.3 µM / inhibition at 1 µM / inhibition at 3 µM / inhibition at 10 µM: read-out: % Inhibition (FS); for inhibition at 10 µM: 10 μM test compound
Procedure: The following reagents were used in this assay: sodium acetate, PEB8000 (Sigma), DMSO, HEPES, FS1 substrate [[…]], β-secretase (BACE) (Panvera), and 96-well plate (HE microplate, Molecular Devices). […] The FS1-substrate stock solution was prepared in DMSO as a 10 mg/mL solution. The FS1-substrate working solution was prepared by diluting the 10 mg/mL stock solution with substrate assay buffer to a final concentration of 300 μg/mL. The β-secretase (BACE) working solution was prepared by diluting a 0.83 mg/mL BACE stock solution with enzyme assay buffer to a final concentration of 4 μg/mL. Test compounds were dissolved in DMSO to 10 mM. […] The screening procedure for this assay was as follows: 15 μL of BACE working solution was pipetted into each well of a 96-well plate. To each well was the pipetted 2 μL of test compound at the selected concentration. Test compound and BACE were then mixed with a pipettor and incubated for 20 min at room temperature. To each well was then added 10 μL of the FS1 substrate working solution. The plates were then incubated for 1 hour at room temperature. […] The procedure for the blank was as follows. 15 μL of assay buffer was pipetted into each well to be used as a blank control. To each well was then added 2 μL of vehicle and 10 μL of FS1-substrate working solution. The plates were then incubated for 1 hour at room temperature. […] The procedure for the positive control was as follows: 15 μL of BACE working solution was pipetted into each well to be used as a positive control. To each well was then pipetted 2 μL of vehicle. Vehicle and BACE were then mixed with a pipettor and incubated for 20 min at room temperature. To each well was then added 10 μL of the FS1 substrate working solution. The plates were then incubated for 1 hour at room temperature. […] For test compounds, % inhibition was determined at each concentration as follows: [formula]

β-secretase (BACE) [3] = biological target: T1, β-secretase (BACE); assay: BACE % Inhibition Assay (Example 161), (Aedens)-[…]-(Dabcyl K-amide) substrate; settings: % error ±10%
Procedure: The following reagents were used in this assay: sodium acetate, PEG8000 (Sigma), DMSO, HEPES, (Aedens)-[…]-(Dabcyl K-amide) substrate, β-secretase (BACE) (Panvera), and 96-well plate (HE microplate, Molecular Devices).
as §1, with “substrate” for “FS1-substrate”
Test compounds were dissolved in DMSO to 10 mM.
as §2, with “The screening” for “The”, “the” for “the FS1”, “solution. The plates were then incubated for 1 hour at room temperature.” for “solution.”
The procedure for the blank was as follows. 15 μL of assay buffer was pipetted into each well to be used as a blank control. To each well was then added 2 μL of vehicle and 10 μL of substrate working solution. The plates were then incubated for 1 hour at room temperature.
as §3, with “15 μl” for “15 μL”, “the” for “the FS1”, “solution. The plates were then incubated for 1 hour at room temperature.” for “solution.”
For test compounds, % inhibition was determined at each concentration as follows: % Inhibition=[[…]][FI(positive control)−FI(negative control)]

β-secretase (BACE) [4] = biological target: T1, β-secretase (BACE); assay: BACE Assay-1 (Example 158), MCA-substrate fluorescence; settings: procedure of Example 158
Procedure: The following standards are reagents were used in this assay: Sodium Citrate trisodium salt dihydrate (Sigma), Citric Acid monohydrate (Merck), PEG8000 (Sigma), MCA-substrate (Bachem), β-secretase (BACE) (Panvera), 96-well plate zwart (Costar (Elscolab)), StatVal (Bachem).
The following standard assay buffer solution was prepared and used in this assay: 0.05 M, pH 5.0 mixture of sodium citrate trisodium salt dihydrate (9.56 g), citric acid monohydrate (3.68 g) and PEG8000 (0.50 g).
The MCA-substrate stock solution was prepared by mixing 10 mg MCA-substrate with 5 mL DMSO for a final solution concentration of 2.0 mg/mL. The substrate work solution was prepared by mixing 0.1 mL substrate in 1.90 mL assay buffer for a final concentration of 0.05 mM. The β-secretase (BACE) work solution was prepared by mixing 8 μL BACE in 2 mL assay buffer for a final concentration of 10 μg/mL.
The screen procedure for this assay was as follows. 60 μL of assay buffer was pippeted into each well of a 96-well plate. To each well was then pipetted 1 μL of test compound at the selected concentration. To each well was then added 20 μL of the β-secretase work solution and 20 μL of the MCA-substrate stock solution.
The procedure for the blank was as follows. 80 μL of assay buffer was pipetted into each well to be used as a blank control. To each well was then added 1 μL of DMSO and 20 μL of MCA-substrate solution in each well.
The procedure for the positive control was as follows. 60 μL of assay buffer was pipetted into each well to be used as a positive control. To each well was then added 1 μL of DMSO, 20 μL of BACE work solution and 20 μL of MCA-substrate stock solution.
For test compounds, measured at multiple concentrations, the measured T0 and T60 values were used to calculate an IC50 value using Graphpad Software (or PIR).

T1 sequence (P56817 46-501): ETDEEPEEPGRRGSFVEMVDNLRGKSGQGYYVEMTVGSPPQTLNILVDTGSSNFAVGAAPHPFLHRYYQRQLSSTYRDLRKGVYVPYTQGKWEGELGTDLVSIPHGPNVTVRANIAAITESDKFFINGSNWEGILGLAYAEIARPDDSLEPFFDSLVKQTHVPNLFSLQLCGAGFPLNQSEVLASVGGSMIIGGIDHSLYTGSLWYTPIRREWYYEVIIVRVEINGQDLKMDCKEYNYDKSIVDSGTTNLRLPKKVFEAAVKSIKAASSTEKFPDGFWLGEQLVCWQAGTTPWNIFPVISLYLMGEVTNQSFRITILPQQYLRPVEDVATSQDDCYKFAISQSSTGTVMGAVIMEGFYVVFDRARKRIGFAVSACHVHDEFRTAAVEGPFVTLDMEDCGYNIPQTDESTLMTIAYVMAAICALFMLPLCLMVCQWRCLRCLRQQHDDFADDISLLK

| Structure (SMILES) | Ki (β-secretase (BACE) [1]) | inhibition at 0.3 µM (β-secretase (BACE) [2]; 0.3 μM test compound) | inhibition at 1 µM (β-secretase (BACE) [2]; 1 μM test compound) | inhibition at 3 µM (β-secretase (BACE) [2]; 3 μM test compound) | IC50 (β-secretase (BACE) [4]) | also measured |
| --- | --- | --- | --- | --- | --- | --- |
| NC1=Nc2ccc(Oc3ccccc3)cc2CN1Cc1cccc(C(=O)N(C2CCCCC2)C2CCCCC2)c1 [Compound 98] | – | – | – | – | – | % Inhibition (β-secretase (BACE) [3]; 3 μM test compound): 76%; % Inhibition (β-secretase (BACE) [3]; 10 μM test compound): 99%; % Inhibition (FS) (β-secretase (BACE) [2]; 0.3 μM test compound): 49%; % Inhibition (FS) (β-secretase (BACE) [2]; 1 μM test compound): 93%; % Inhibition (FS) (β-secretase (BACE) [2]; 3 μM test compound): 114% |
| CCCN1Cc2cc(Oc3cccc(NS(=O)(=O)c4cccc5nsnc45)c3)ccc2N=C1N [Compound 247] | – | – | – | – | 1.7 µM | – |
| CC(C)CC(=O)NCC(C1CCCCC1)N1Cc2cc(Oc3ccccc3)ccc2N=C1N (stereo not drawn) [Compound 389] | – | – | – | – | – | % Inhibition (β-secretase (BACE) [3]; 0.3 μM test compound): 85%; % Inhibition (β-secretase (BACE) [3]; 1 μM test compound): 112%; % Inhibition (β-secretase (BACE) [3]; 3 μM test compound): 120% |
| CCCCCC(CCC(=O)NC1CCCCCC1)N1Cc2cc(Oc3ccccc3)ccc2N=C1N (stereo not drawn) [Compound 150] | 0.46 µM | < 30% | < 30% | 90% | – | – |
| NC1=Nc2ccc(Oc3ccccc3)cc2CN1C(CNC(=O)C1(c2ccc(Cl)cc2)CCCC1)C1CCCCC1 (stereo not drawn) [Compound 390] | 0.57 µM | – | – | – | – | inhibition at 0.3 µM (β-secretase (BACE) [3]; 0.3 μM test compound): < 30%; inhibition at 1 µM (β-secretase (BACE) [3]; 1 μM test compound): 50%; inhibition at 3 µM (β-secretase (BACE) [3]; 3 μM test compound): 102% |
| CN(C(=O)CC(C1CCCCC1)N1Cc2cc(Oc3ccccc3)ccc2N=C1N)C1CCCCC1 (stereo not drawn) [Compound 199] | 0.51 µM | < 30% | < 30% | 82% | – | – |

The remaining compounds from weak to strong by Ki (β-secretase (BACE) [1]), led by results:

| Ki (β-secretase (BACE) [1]) | inhibition at 0.3 µM (β-secretase (BACE) [2]; 0.3 μM test compound) | inhibition at 1 µM (β-secretase (BACE) [2]; 1 μM test compound) | inhibition at 3 µM (β-secretase (BACE) [2]; 3 μM test compound) | IC50 (β-secretase (BACE) [4]) | Structure (SMILES) | also measured |
| --- | --- | --- | --- | --- | --- | --- |
| 0.32 µM | – | – | 68% | 0.6 µM | CCCC(CCCC(=O)NC1CCCCC1)N1Cc2cc(Oc3ccccc3)ccc2N=C1N (stereo not drawn) [Compound 91] | inhibition at 10 µM (β-secretase (BACE) [2]): 117% |
| 0.18 µM | – | – | – | 0.39 µM | CC(C)(C)C(=O)NCC(C1CCCCC1)N1Cc2cc(Oc3ccccc3)ccc2N=C1N (stereo not drawn) [Compound 317] | inhibition at 0.3 µM (β-secretase (BACE) [3]; 0.3 μM test compound): < 30%; inhibition at 1 µM (β-secretase (BACE) [3]; 1 μM test compound): 66%; inhibition at 3 µM (β-secretase (BACE) [3]; 3 μM test compound): 107% |
| 0.13 µM | – | – | 97% | 0.072 µM | CCCC(CCC(=O)NC1CCCCCC1)N1Cc2cc(Oc3ccccc3)ccc2N=C1N (stereo not drawn) [Compound 128] | inhibition at 10 µM (β-secretase (BACE) [2]): 108% |
| 0.056 µM | 78% | 113% | 121% | – | CCCC(CNC(=O)C12CC3CC(CC(C3)C1)C2)N1Cc2cc(Oc3ccccc3)ccc2N=C1N (stereo not drawn) [Compound 602] | – |
| 0.056 µM | 67% | 105% | – | 0.083 µM | CC(C)(C)OC(=O)NCC(C1CCCCC1)N1Cc2cc(Oc3ccccc3)ccc2N=C1N (stereo not drawn) [Compound 257] | – |
| 0.039 µM | 74% | 103% | 115% | 0.039 µM | NC1=Nc2ccc(Oc3ccccc3)cc2CN1C(CNC(=O)C12CC3CC(CC(C3)C1)C2)C1CCCCC1 (stereo not drawn) [Compound 312] | – |
| 0.033 µM | 101% | 114% | 122% | – | CCC[C@H](CNC(=O)CCC(C)C)N1Cc2cc(Oc3ccccc3)ccc2N=C1N [Compound 603] | – |
